Assay results: PubChem BioAssay (NCI)
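All cell lines were grown in 96-well plates and treated with compound for 48 hours. TGI marks complete inhibition of growth.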

How the values were obtained:
Experiment in all cases: NCI anticancer screen, dose series, 48 h
[1] = system: 786-0 renal
[2] = system: ACHN renal
[3] = system: EKVX NSCLC
[4] = system: NCI-H226 lung
[5] = system: UO-31 renal
[6] = system: OVCAR-4 ovarian
[7] = system: HOP-92 NSCLC
[8] = system: SF-539 CNS
[9] = system: SNB-19 CNS
[10] = system: OVCAR-8 ovarian
[11] = system: HCC-2998 colon

SMILES: O=C1Cc2c([nH]c3ccc(Br)cc23)-c2ccccc2N1
- TGI [1]: > 100 µM
- TGI [2]: > 100 µM
- TGI [3]: > 100 µM
- TGI [4]: > 100 µM
- TGI [5]: > 100 µM
- TGI [6]: > 100 µM
- TGI [7]: > 100 µM
- TGI [8]: > 27.8 µM
- TGI [9]: > 100 µM
- TGI [10]: > 100 µM
- TGI [11]: > 100 µM

SMILES: C=C(CC[C@@H](C(=O)O)[C@H]1[C@H](O)C[C@@]2(C)C3=CC[C@@H](C(=C)C)[C@](C)(CCC(=O)O)C3=CC[C@]12C)C(C)C
- TGI [1]: 31.1 µM
- TGI [2]: 31.4 µM
- TGI [3]: 32.3 µM
- TGI [4]: 36.3 µM
- TGI [5]: 31.5 µM
- TGI [6]: 36.3 µM
- TGI [7]: 33.7 µM
- TGI [8]: 37.7 µM
- TGI [9]: 32.9 µM
- TGI [10]: 39.9 µM
- TGI [11]: 32.4 µM
